The text below walks through data of patent US20050049294A1, “Methods of using [3.2.0] heterocyclic compounds and analogs thereof” (priority 2003, published 2005).

Like-named read-outs stand apart in the source and are kept apart here.

In test [1] the target is T1, chymotrypsin-like activity of rabbit muscle 20S proteasomes (Oryctolagus cuniculus, UniProt G1T4Q9).
T1 sequence (G1T4Q9 1-263): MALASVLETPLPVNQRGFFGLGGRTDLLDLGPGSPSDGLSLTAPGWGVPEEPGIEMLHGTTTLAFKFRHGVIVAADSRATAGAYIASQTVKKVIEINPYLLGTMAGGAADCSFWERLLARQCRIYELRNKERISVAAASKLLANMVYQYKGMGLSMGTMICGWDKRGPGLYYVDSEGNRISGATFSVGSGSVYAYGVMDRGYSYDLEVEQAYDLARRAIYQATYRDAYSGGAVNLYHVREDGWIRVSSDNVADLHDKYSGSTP
Nature of the test: Inhibition of chymotrypsin-like activity of purified rabbit muscle 20S proteasome (suc-LLVY-AMC). Type of test: biochemical. The protocol: This peptide substrate is specific for the chymotrypsin-like enzyme activity of the proteasome.
Omuralide was prepared as a 10 mM stock in DMSO and stored in 5 μL aliquots at −80° C. […] The assay measures the hydrolysis of Suc-LLVY-AMC into Suc-LLVY and AMC. The released coumarin (AMC) was measured fluorometrically by using λex=390 nm and λem=460 nm. The assays were performed in a microtiter plate (Corning 3904), and followed kinetically with measurements every five minutes. The instrument used was a Thermo Lab Systems Fluoroskan, with the incubation chamber set to 37° C. The assays were performed according to the manufacturer's protocol, with the following changes. The proteasome was activated as described with SDS, and held on ice prior to the assay. […] Ten microliters of each dose were added in triplicate to the assay plate, and 190 μL of the activated proteasome was added and mixed. The samples were pre-incubated in the Fluoroskan for 5 minutes at 37° C. Substrate was added and the kinetics of AMC were followed for one hour.

Test [2] has as its target PGPH (caspase-like) activity of rabbit muscle 20S proteasomes (Oryctolagus cuniculus, UniProt A0A5F9DQW2). The experiment in a line: Inhibition of caspase-like (PGPH) activity of 20S proteasome (Z-LLE-AMC). Type of test: biochemical. To be noted: Table 3; mean EC50; purified rabbit 20S proteasomes. The protocol: A commercially available fluorogenic substrate specific for the PGPH activity was used instead of the chymotrypsin substrate supplied in the proteasome assay kit described above.
The substrate Z-LLE-AMC was prepared as a 20 mM stock solution in DMSO, stored at −20° C. The source of the proteasomes was the commercially available kit from Calbiochem (Cat. #539158). As with the chymotrypsin substrate, the proteasome can cleave Z-LLE-AMC into Z-LLE and free AMC. The activity can then be determined by measuring the fluorescence of the released AMC (λex=390 nm and λem=460 nm). The proteasomes were activated with SDS and held on ice as per manufacturer's recommendation. […] The series was diluted 20-fold with assay buffer and preincubated with the proteasomes as described for the chymotrypsin-like activity. After addition of substrate, the samples were incubated at 37° C., and release of the fluorescent AMC was monitored in a fluorimeter. All data were collected and plotted as the mean of triplicate points. […] As before, the model chosen was a sigmoidal dose-response, with a variable slope.

For test [3], the system named is B16-F10 cells. The experiment in a line: Cell growth inhibition (resazurin, 48 hours), B16-F10. Type of test: cell-based, mouse. To be noted: Mus musculus, B16-F10, Table 13; B16-F10. Background: The colour change of resazurin is a common sign of viable cells or microbes.
Test [4] concerns HT-29 cells. The experiment in a line: Cell growth inhibition (resazurin, 48 hours), HT-29. Type of test: cell-based. The conditions noted are these: Homo sapiens, HT-29.
In test [5] the test system is MDA-MB-231 cells. The experiment in a line: Cell growth inhibition (resazurin, 48 hours), MDA-MB-231. Type of test: cell-based. The conditions noted are these: Homo sapiens, MDA-MB-231.
In test [6] the test system is NCI-H292 cells. The experiment in a line: Cell growth inhibition (resazurin, 48 hours), NCI-H292. Type of test: cell-based, human. To be noted: Homo sapiens, NCI-H292.
The subject of test [7] is OVCAR-3 cells. The experiment in a line: Cell growth inhibition (resazurin, 48 hours), OVCAR-3. Type of test: cell-based, human. The conditions noted are these: Homo sapiens, OVCAR-3, Table 13; OVCAR-3.
Test [8] relates to PC-3 cells. Nature of the test: Cell growth inhibition (resazurin, 48 hours), PC-3. The conditions noted are these: Homo sapiens, PC-3. Type of test: cell-based, human.
The subject of test [9] is RPMI 8226 cells. Nature of the test: Cell growth inhibition (resazurin, 48 hours), RPMI 8226.
The test system of test [10] is MES-SA cells. Nature of the test: Cell growth inhibition (resazurin, 48 hours), MES-SA. The conditions noted are these: Homo sapiens, MES-SA, read-out: EC50 (nM) MES-SA, Table 16.
Test [11] relates to MES-SA/Dx5 cells. Nature of the test: cells. To be noted: Homo sapiens, MES-SA/Dx5, read-out: EC50 (nM) MES-SA/Dx5, Table 16.
Test [12] has as its system HL-60 cells. The experiment in a line: Cell growth inhibition (resazurin, 48 hours), HL-60. The conditions noted are these: Homo sapiens, HL-60, read-out: EC50 (nM) HL-60, Table 17. An excerpt:
(§1) The DNA binding agent Mitoxantrone was included as a control, as HL-60/MX2 cells are reported to be resistant to this chemotherapeutic agent (Harker W. G. et al. 1989).

In test [13] the test system is HL-60/MX2 cells. Nature of the test: cells. The conditions noted are these: Homo sapiens, HL60/MX2, read-out: EC50 (nM) HL-60/MX2, Table 17.
Excerpt: as §1

Test [14] concerns the target T2, trypsin-like activity of purified rabbit 20S proteasomes (Oryctolagus cuniculus, UniProt G1SWK8).
T2 sequence (G1SWK8 1-271): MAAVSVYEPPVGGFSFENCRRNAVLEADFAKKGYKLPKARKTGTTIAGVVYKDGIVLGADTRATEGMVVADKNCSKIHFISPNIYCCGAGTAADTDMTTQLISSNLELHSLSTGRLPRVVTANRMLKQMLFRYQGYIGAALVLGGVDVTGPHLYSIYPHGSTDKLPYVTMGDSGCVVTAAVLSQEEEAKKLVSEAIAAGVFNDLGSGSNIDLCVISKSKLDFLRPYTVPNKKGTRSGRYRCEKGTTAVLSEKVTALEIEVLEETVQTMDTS
The conditions noted are these: under the conditions tested.

For test [15], the system named is LeTx-induced cytotoxicity of RAW264.7 cells. The experiment in a line: cells. To be noted: Mus musculus, RAW264.7, read-out: EC50 (nM), inhibition of RAW 264.7 cell cytotoxicity mediated by anthrax lethal toxin.
Test [16] addresses T2, trypsin-like activity of purified rabbit 20S proteasomes. Nature of the test: biochemical.
Test [17] deals with U266 cells. Nature of the test: Cell growth inhibition (resazurin, 48 hours), U266.
Test [18] relates to NF-κB-mediated luciferase activity in HEK293 NF-κB/Luc cells. The experiment in a line: NF-κB-mediated luciferase reporter gene assay. Type of test: cell-based, human. To be noted: for EC50: Homo sapiens, HEK293, representative experiment, Example 43 (FIG. 44, 45), read-out: calculated EC50 to inhibit NF-κB inducible luciferase activity; for luciferase activity upon TNF-α stimulation: pretreatment of NF-κB/Luc 293 cells. The protocol:
The HEK293 NF-κB/luciferase reporter cell line is a derivative of the human embryonic kidney cell line (ATCC; CRL- 1573) and carries a luciferase reporter gene under the regulation of 5×NF-κB binding sites. […] When performing the luciferase assay, the DMEM basal medium was replaced with phenol-red free DMEM basal medium and the G418 was omitted.
For NF-κB-mediated luciferase assays, HEK293 NF-κB/luciferase cells were seeded at 1.5×10^4 cells/well in 90 μl phenol-red free DMEM complete medium into Corning 3917 white opaque-bottom tissue culture plates. […] This dilution series was further diluted 40× in appropriate culture medium and ten μl aliquots were added to the test wells in triplicate resulting in final test concentrations ranging from 1 μM to 320 pM. […] For Formula II-19, a 127 μM starting dilution was made in 100% DMSO and the final test concentrations ranging from 317 nM to 0.1 nM. […] After 1 hr pretreatment, 10 μl of a 50 ng/ml TNF-α solution, prepared in the phenol-red free DMEM medium was added, and the plates were incubated for an additional 6 hr.
NF-κB inducible luciferase activity was measured at 6 hours.
The HEK293 NF-κB/luciferase reporter cell line is a derivative of the human embryonic kidney cell line (ATCC; CRL-1573) and carries a luciferase reporter gene under the regulation of 5×NF-κB binding sites. […] When performing the luciferase assay, the DMEM basal medium was replaced with phenol-red free DMEM basal medium and the G418 was omitted.
For NF-κB-mediated luciferase assays, HEK293 NF-κB/luciferase cells were seeded at 1.5×10^4 cells/well in 90 μl phenol-red free DMEM complete medium into Corning 3917 white opaque-bottom tissue culture plates. For Formula II-2, Formula II-4 and Formula II-5A, a 400 μM starting dilution was made in 100% DMSO and this dilution was used to generate a 8-point half log dilution series. This dilution series was further diluted 40× in appropriate culture medium and ten μl aliquots were added to the test wells in triplicate resulting in final test concentrations ranging from 1 μM to 320 pM. […] After 1 hr pretreatment, 10 μl of a 50 ng/ml TNF-α solution, prepared in the phenol-red free DMEM medium was added, and the plates were incubated for an additional 6 hr.
The relative luciferase units (RLU) were measured by using a Fusion microplate fluorometer (Packard Bioscience).

[19] abbreviates: Table 3, mean EC50, purified rabbit 20S proteasomes, read-out: EC50 Values, Chymotrypsin-like.
Where [20] appears, read: representative experiment, Example 44 (FIG. 46, 47), read-out: EC50, chymotrypsin-like activity of the proteasome.
Where [21] appears, read: Homo sapiens, RPMI-8226, Table 13, RPMI 8226.
Where [22] appears, read: Homo sapiens, U-266, Table 13, U266.
The mark [23] stands for this setting: Homo sapiens, RPMI-8226, read-out: RPMI 8226 EC50 (nM), Table 15, mean EC50.
The mark [24] stands for this setting: Homo sapiens, U-266, read-out: U266 EC50 (nM), Table 15, mean EC50.

PGPH (caspase-like) activity of rabbit muscle 20S proteasomes, sequence (A0A5F9DQW2 1-212): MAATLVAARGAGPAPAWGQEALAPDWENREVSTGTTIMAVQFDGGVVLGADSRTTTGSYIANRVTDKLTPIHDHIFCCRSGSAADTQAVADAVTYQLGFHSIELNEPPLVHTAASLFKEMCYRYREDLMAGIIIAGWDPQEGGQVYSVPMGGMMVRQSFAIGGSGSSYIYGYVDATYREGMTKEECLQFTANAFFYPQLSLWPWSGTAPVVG

Turning to `CC[C@H]1C(=O)N[C@@]2([C@@H](O)C3CCCCC3)C(=O)O[C@@]12C` [Formula II-3], the EC50 in test [1] (setting [19]) is 927 nM; in test [1] (setting [20]), 890 nM; in [2], over 20 µM; in test [3] it was over 20 µM; in test [4], over 20000 nM; in test [5], over 20000 nM. For the same compound, the EC50 in test [6] (NCI-H292, Table 13) was over 20 µM; in test [7] it was over 20 µM; in test [8], over 20000 nM; in test [9] (setting [21]), over 20000 nM; in [10], over 20000 nM; in [11], over 20000 nM. Also, the EC50 was over 20000 nM in test [12]; over 20000 nM in test [13]; over 330 nM in [15]; 6600 nM in test [16]; over 20000 nM in test [17] (setting [22]). In addition, the “inhibit the trypsin-like activity of the 20S proteasome” value (shortened to “inhibit the trypsin-like activity”) in test [14] is given as “able to inhibit”.
Turning to `C[C@@]12OC(=O)[C@]1([C@@H](O)[C@H]1CCC[C@H]3O[C@@H]13)NC(=O)[C@@H]2CCCl` [Formula II-5A], the EC50 is 6.5 nM in test [1] (setting [19]); 6 nM in test [1] (setting [20]); 0.487 µM in [2]; 30 nM in [18]; 85 nM in test [4] (Table 13, read-out: EC50); 66 nM in test [5] (Table 13, read-out: EC50). For the same compound, the EC50 in test [6] (Table 13, read-out: EC50) worked out at 0.09 µM; in test [8] (Table 13, read-out: EC50), 97 nM; in test [9] (setting [21]) it was 36 nM; in test [9] (setting [23]), 33 nM; in [9] (Table 13, RPMI 8226) it was 29 nM; in test [15] it was 3 nM. The EC50 amounted to 89 nM in [16]; 10 nM in test [17] (setting [22]); 10 nM in test [17] (setting [24]); 9 nM in [17] (Table 13, U266). Further, in [18], the “luciferase activity upon TNF-α stimulation” value is recorded as “dose-dependent decrease”. Besides, the “inhibit the trypsin-like activity” value in test [14] is on record as “able to inhibit”.
For `C[C@@]12OC(=O)[C@]1([C@@H](O)[C@H]1CCC[C@@H]3O[C@H]13)NC(=O)[C@@H]2CCCl` [Formula II-5B], the EC50 in test [1] (setting [19]) is 87 nM; in [1] (setting [20]), 88 nM; in test [2], 3.3 µM; in [18], 261 nM; in test [4] (Table 13, read-out: EC50) it was 1070 nM; in test [5] (Table 13, read-out: EC50) it was 1040 nM. Moreover, the EC50 is over 20 µM in test [6] (Table 13, read-out: EC50); 1330 nM in [8] (Table 13, read-out: EC50); 326 nM in [9] (setting [21]); 327 nM in [9] (setting [23]); 328 nM in [9] (Table 13, RPMI 8226); 45 nM in test [15]. Also, the EC50 in [16] is 739 nM; in [17] (setting [22]), 118 nM; in test [17] (setting [24]), 115 nM; in test [17] (Table 13, U266), 111 nM. Further, the “luciferase activity upon TNF-α stimulation” value in test [18] is given as “dose-dependent decrease”. Moreover, in test [14], the “inhibit the trypsin-like activity” value is recorded as “able to inhibit”.
In the case of `CC[C@H]1C(=O)N[C@@]2([C@@H](O)[C@@H]3C=CCCC3)C(=O)O[C@@]12C` [Formula II-17], the “luciferase activity upon TNF-α stimulation” value in [18] is recorded as “dose-dependent decrease”. Besides, the EC50 is over 20000 nM in test [4]; 5900 ± 601 nM in test [5]; over 20 µM in test [6] (NCI-H292, Table 13); over 20 µM in [7]; over 20000 nM in test [8]; 9230 nM in [10]. For the same compound, the EC50 in test [11] was 9450 nM; in [12] it was over 20000 nM; in test [13], over 20000 nM; in [15] it was 42 nM; in [16], 588 nM. For the same compound, in test [14], the “inhibit the trypsin-like activity” value is “able to inhibit”.
